Tested on: F1 Sprague-Dawley rats
Assay: Pilot postnatal study, GD14-18 oral maternal dosing
Format: in vivo
Protocol: A single-dose level pilot study utilizing time-mated SD rats was conducted to examine the potential postnatal effects of in utero exposure to HFPO-DA from a similar dosing interval to the fetal studies (Figure 1B). The study consisted of dams exposed to oral daily dosing with either water vehicle or 125mg/kg HFPO-DA ( n=3 for each) from GD14–18. […] Dams gave birth naturally beginning on the morning of GD22 [i.e., postnatal day (PND) 0]. On PND2 all pups were sexed, weighed, and anogenital distance (AGD) was measured using a Leica MZ6 stereomicroscope (Leica Microsystems) fitted with an ocular micrometer. On PND13, the offspring were sexed, weighed, and evaluated for retention of female-like nipples/areolae. On PND27, the dams were euthanized, uterine implantation sites were scored, pups were weaned to two animals per cage by sex and treatment group, and food was changed to NTP2000 rodent diet. Beginning on PND31 for female offspring and PND41 for male offspring, individuals were evaluated daily for markers of pubertal onset, vaginal opening (VO) for females and balano-preputial separation (BPS) for males.
Beginning at PND128, adult F1 females were weighed, euthanized via decapitation, and examined via necropsy for any reproductive tract malformations and tissue weights were collected for uterus, paired ovaries, liver, paired kidneys, and visceral adipose tissue. Similarly, beginning at PND146 adult F1 males were weighed, euthanized, and examined for reproductive tract malformations and weights were collected for all relevant reproductive tissues. Male necropsy included weights of glans penis, ventral prostate, paired seminal vesicles, paired testes, paired epididymides, levator ani–bulbocavernosus (LABC), paired bulbourethral (Cowper’s) glands, paired kidneys, visceral adipose tissue, and epididymal adipose tissue. […] Total sperm counts in epididymal sections were measured using a Multisizer 3 Coulter counter (Beckman Coulter).

[1] = adult F1 female, 125 mg/kg/d, individual means
[2] = adult F1 female, 125 mg/kg/d, litter means
[3] = adult F1 male, 125 mg/kg/d, individual means
[4] = adult F1 male, 125 mg/kg/d, litter means

`O=C(O)C(F)(OC(F)(F)C(F)(F)C(F)(F)F)C(F)(F)F` (stereo not shown) [HFPO-DA, Hexafluoropropylene oxide dimer acid] was tested, and the “viable pups per litter versus control dams” value (125 mg/kg) was “equal numbers of viable pups”, the pup survival (125 mg/kg GD14-18) was “no effect on pup survival” and the “Female AGD on PND2” value (125 mg/kg/d, individual means) was 1.5 ± 0.0 mm. The “Female BW at VO” value (125 mg/kg/d, individual means) was 123.4 ± 2.3 g, the “Female BW on PND27” value (125 mg/kg/d, individual means) was 79.1 ± 1.4 g and the “Female NR on PND13” value (125 mg/kg/d, individual means) was 12.0 ± 0.0. The “Female pup BW on PND2” value (125 mg/kg/d, individual means) was 7.5 ± 0.1 g, the “Female pup BW on PND13” value (125 mg/kg/d, individual means) was 28.7 ± 0.3 g and the “Male AGD on PND2” value (125 mg/kg/d, individual means) was 3.7 ± 0.1 mm. The “Male BW at PPS” value (125 mg/kg/d, individual means) was 211.4 ± 3.7 g, the “Male BW on PND27” value (125 mg/kg/d, individual means) was 81.1 ± 1.6 g and the “Male NR on PND2” value (125 mg/kg/d, individual means) was 0.1 ± 0.1. The “Male pup BW on PND2” value (125 mg/kg/d, individual means) was 7.8 ± 0.1 g, the “Male pup BW on PND13” value (125 mg/kg/d, individual means) was 29.3 ± 0.3 g and the “Dam BW GD14” value (125 mg/kg/d, litter means) was 325.5 ± 5.2 g. For the same compound, the “Dam BW GD18” value (125 mg/kg/d, litter means) was 354.9 ± 9.0 g, the “Dam BW gain” value (125 mg/kg/d, litter means) was 29.4 ± 6.0 g and the “Female AGD on PND2” value (125 mg/kg/d, litter means) was 1.5 ± 0.1 mm. The “Female BW at VO” value (125 mg/kg/d, litter means) was 124.3 ± 4.2 g, the “Female BW on PND27” value (125 mg/kg/d, litter means) was 78.2 ± 3.5 g and the “Female NR on PND13” value (125 mg/kg/d, litter means) was 12.0 ± 0.0. The “Female pup BW on PND2” value (125 mg/kg/d, litter means) was 7.5 ± 0.1 g, the “Female pup BW on PND13” value (125 mg/kg/d, litter means) was 28.7 ± 0.1 g and the “Male AGD on PND2” value (125 mg/kg/d, litter means) was 3.7 ± 0.1 mm. The “Male BW at PPS” value (125 mg/kg/d, litter means) was 214.6 ± 8.0 g, the “Male BW on PND27” value (125 mg/kg/d, litter means) was 83.3 ± 4.7 g and the “Male NR on PND2” value (125 mg/kg/d, litter means) was 0.1 ± 0.1. The “Male pup BW on PND2” value (125 mg/kg/d, litter means) was 7.8 ± 0.1 g, the “Male pup BW on PND13” value (125 mg/kg/d, litter means) was 29.5 ± 0.5 g and the No. implants (125 mg/kg/d, litter means) was 13.0 ± 1.0. The “No. pups on PND2” value (125 mg/kg/d, litter means) was 12.7 ± 0.7, the “Post-implantation loss on PND2” value (125 mg/kg/d, litter means) was 2.2 ± 2.2% and the “adult female AGD and liver weight” value (125 mg/kg, individual basis) was “significantly smaller AGD and lower liver weight”. For the same compound, the “weights of right, left, paired testes, right, left, paired epididymides, epididymal adipose tissue” value (125 mg/kg, individual basis) was “significantly lower tissue weights”, the “female offspring body weight (PND2, PND27, at VO)” value (125 mg/kg, individual pup basis) was “significantly lower than controls” and the “adult female necropsy end points” value (125 mg/kg, litter means basis) was “no significant differences”. For the same compound, the “end points measured through the onset of puberty” value (125 mg/kg, litter means basis) was “no significant differences”, the “right epididymis tissue weight, adult males” value (125 mg/kg, litter means basis) was “significantly lower” and the AGD [1] was 16.7 ± 0.7 mm. The Body weight [1] was 370.3 ± 12.3 g, the Liver [1] was 11.3 ± 0.3 g and the Paired kidneys [1] was 2.1 ± 0.1 g. The Paired ovaries [1] was 123.2 ± 3.6 mg, the Uterus [1] was 635.6 ± 48.9 mg and the Visceral adipose tissue [1] was 25.2 ± 2.4 g. It also gave an AGD [2] of 16.8 ± 0.5 mm, a Body weight [2] of 374.0 ± 25.0 g and a Liver [2] of 11.4 ± 0.5 g. For the same compound, the Paired kidneys [2] was 2.1 ± 0.1 g, the Paired ovaries [2] was 122.5 ± 8.6 mg and the Uterus [2] was 635.4 ± 74.3 mg. For the same compound, the Visceral adipose tissue [2] was 25.1 ± 4.6 g, the Body weight [3] was 676.5 ± 10.6 g and the Cauda sperm [3] was 159.7 ± 4.7 106. For the same compound, the Corpus/caput sperm [3] was 72.6 ± 2.3 106, the Epididymal adipose tissue [3] was 7.8 ± 0.5 g and the Glans penis [3] was 134.5 ± 3.0 mg. For the same compound, the LABC [3] was 1.6 ± 0.0 g, the Left epididymis [3] was 668.1 ± 10.4 mg and the Left testis [3] was 1.9 ± 0.0 g. For the same compound, the Liver [3] was 20.1 ± 0.4 g, the “Paired Cowper’s glands” value [3] was 163.4 ± 5.2 mg and the Paired epididymides [3] was 1331.2 ± 21.2 mg. The Paired kidneys [3] was 3.4 ± 0.1 g, the Paired seminal vesicles [3] was 1.8 ± 0.1 g and the Paired testes [3] was 3.8 ± 0.1 g. For the same compound, the Right cauda [3] was 310.5 ± 6.2 mg, the Right corpus/caput [3] was 352.6 ± 7.1 mg and the Right epididymis [3] was 663.1 ± 11.2 mg. For the same compound, the Right testis [3] was 1.9 ± 0.0 g, the Total epididymal sperm [3] was 185.8 ± 4.7 106 and the Ventral prostate [3] was 682.1 ± 32.7 mg. For the same compound, the Visceral adipose tissue [3] was 25.8 ± 1.5 g, the Body weight [4] was 682.6 ± 13.4 g and the Cauda sperm [4] was 160.0 ± 3.4 106. The Corpus/caput sperm [4] was 72.0 ± 2.8 106, the Epididymal adipose tissue [4] was 8.2 ± 1.0 g and the Glans penis [4] was 135.0 ± 1.5 mg. For the same compound, the LABC [4] was 1.5 ± 0.1 g, the Left epididymis [4] was 664.2 ± 12.5 mg and the Left testis [4] was 1.9 ± 0.0 g. The Liver [4] was 20.2 ± 0.4 g, the “Paired Cowper’s glands” value [4] was 165.6 ± 9.7 mg and the Paired epididymides [4] was 1323.7 ± 24.3 mg. For the same compound, the Paired kidneys [4] was 3.4 ± 0.0 g, the Paired seminal vesicles [4] was 1.8 ± 0.1 g and the Paired testes [4] was 3.8 ± 0.1 g. It also gave a Right cauda [4] of 309.0 ± 6.0 mg, a Right corpus/caput [4] of 350.5 ± 5.9 mg and a Right epididymis [4] of 659.5 ± 11.8 mg. For the same compound, the Right testis [4] was 1.9 ± 0.0 g, the Total epididymal sperm [4] was 185.6 ± 2.0 106 and the Ventral prostate [4] was 678.7 ± 30.1 mg. The Visceral adipose tissue [4] was 26.8 ± 2.4 g.

Source: PMC6768323, “Adverse Maternal, Fetal, and Postnatal Effects of Hexafluoropropylene Oxide Dimer Acid (GenX) from Oral Gestational Exposure in Sprague-Dawley Rats” (Environmental Health Perspectives, 2019)
